“And” between values parts separate entries of the source, which are not always exact repeats. Equal values may be shown once.
Test system: 379773-124-R-J2-PDC complex spheroids, viability % test/control
Assay: Anticancer human tumor 379773-124-R-J2-PDC patient-derived endometrial carcinoma cell line growth inhibition [CLK]
Settings: for viability, T/C: stronger effect = lower value
Summary of the method: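 Patient-derived tumor cells grown as complex spheroids with HUVEC endothelial cells and mesenchymal stem cells, treated with drug combinations. Concentrations descend in half-log steps from near clinical Cmax, or from 10 microM if Cmax unknown.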

[1] = curve of first compound, second compound 0.0316 µM
[2] = curve of first compound, second compound 0.1 µM
[3] = curve of first compound, second compound 0.316 µM
[4] = curve of first compound, second compound 1 µM
[5] = curve of first compound, second compound 3.16 µM
[6] = curve of first compound, second compound 10 µM
[7] = second compound 0.0316 µM, first compound 0.0316 µM
[8] = second compound 0.0316 µM, first compound 0.1 µM
[9] = second compound 0.0316 µM, first compound 0.316 µM
[10] = second compound 0.0316 µM, first compound 1 µM
[11] = second compound 0.0316 µM, first compound 3.16 µM
[12] = second compound 0.0316 µM, first compound 10 µM
[13] = second compound 0.1 µM, first compound 0.0316 µM
[14] = second compound 0.1 µM, first compound 0.1 µM
[15] = second compound 0.1 µM, first compound 0.316 µM
[16] = second compound 0.1 µM, first compound 1 µM
[17] = second compound 0.1 µM, first compound 3.16 µM
[18] = second compound 0.1 µM, first compound 10 µM
[19] = second compound 0.316 µM, first compound 0.0316 µM
[20] = second compound 0.316 µM, first compound 0.1 µM
[21] = second compound 0.316 µM, first compound 0.316 µM
[22] = second compound 0.316 µM, first compound 1 µM
[23] = second compound 0.316 µM, first compound 3.16 µM
[24] = second compound 0.316 µM, first compound 10 µM
[25] = second compound 1 µM, first compound 0.0316 µM
[26] = second compound 1 µM, first compound 0.1 µM
[27] = second compound 1 µM, first compound 0.316 µM
[28] = second compound 1 µM, first compound 1 µM
[29] = second compound 1 µM, first compound 3.16 µM
[30] = second compound 1 µM, first compound 10 µM
[31] = second compound 3.16 µM, first compound 0.0316 µM
[32] = second compound 3.16 µM, first compound 0.1 µM
[33] = second compound 3.16 µM, first compound 0.316 µM
[34] = second compound 3.16 µM, first compound 1 µM
[35] = second compound 3.16 µM, first compound 3.16 µM
[36] = second compound 3.16 µM, first compound 10 µM
[37] = second compound 10 µM, first compound 0.0316 µM
[38] = second compound 10 µM, first compound 0.1 µM
[39] = second compound 10 µM, first compound 0.316 µM
[40] = second compound 10 µM, first compound 1 µM
[41] = second compound 10 µM, first compound 3.16 µM
[42] = second compound 10 µM, first compound 10 µM
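Further: compound exposure lasted seven days before the viability readout.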
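Wherever viability, T/C is given: 100% = DMSO vehicle control wells.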

COc1ccc([C@@H](O)c2cc(-c3ncnc4cc(N5CCOCC5)ccc34)c(F)cc2Cl)nn1 + CNC(=O)c1ccc(Nc2nc(OC3CCCC3)c3c(-c4ccc5nc(C)oc5c4)c[nH]c3n2)c(OC)c1
IC50 [1]: 3420 nM | IC50 [2]: < 31.6 nM | IC50 [3]: < 31.6 nM | IC50 [4]: < 31.6 nM | IC50 [5]: < 31.6 nM | IC50 [6]: < 31.6 nM | viability, T/C [7]: 79.2% | viability, T/C [8]: 79.9% | viability, T/C [9]: 68% | viability, T/C [10]: 60.6% | viability, T/C [11]: 58.7% | viability, T/C [12]: 20.4% | viability, T/C [13]: 35.6% | viability, T/C [14]: 30.8% | viability, T/C [15]: 32.7% | viability, T/C [16]: 29.7% | viability, T/C [17]: 24% | viability, T/C [18]: 12.7% | viability, T/C [19]: 45.2% | viability, T/C [20]: 38% | viability, T/C [21]: 29% | viability, T/C [22]: 21.6% | viability, T/C [23]: 15.1% | viability, T/C [24]: 7.43% | viability, T/C [25]: 34.8% | viability, T/C [26]: 35% | viability, T/C [27]: 32.1% | viability, T/C [28]: 25.9% | viability, T/C [29]: 14.9% | viability, T/C [30]: 6.1% | viability, T/C [31]: 34.7% | viability, T/C [32]: 32.3% | viability, T/C [33]: 27.8% | viability, T/C [34]: 19.3% | viability, T/C [35]: 15.7% | viability, T/C [36]: 4.62% | viability, T/C [37]: 32.8% | viability, T/C [38]: 33.7% | viability, T/C [39]: 23.4% | viability, T/C [40]: 17.9% | viability, T/C [41]: 14.2% | viability, T/C [42]: 4.23%

COC1C=CCC(C)C(C)S(=O)(=O)NC(=O)c2ccc3c(c2)N(CC2CCC21)CC1(CCCc2cc(Cl)ccc21)CO3 (stereo not given)
viability, T/C (compound 0.0316 µM): 96.5% and 98.1% | viability, T/C (compound 0.1 µM): 91.1% and 82% | viability, T/C (compound 0.316 µM): 98.4% and 83.7% | viability, T/C (compound 1 µM): 98.3% and 78.7% | viability, T/C (compound 3.16 µM): 84.1% and 88.6% | viability, T/C (compound 10 µM): 5.48% and 2.76% | IC50 (curve of compound): 5210 nM

C=C(F)C(=O)N1CCN(c2nc(OCC3CCCN3C)nc3c2CCN(c2cccc4cccc(Cl)c24)C3)CC1CC#N (stereo not given)
viability, T/C (compound 0.0316 µM): 76.2% and 106% | viability, T/C (compound 0.1 µM): 93.9% and 84.4% | viability, T/C (compound 0.316 µM): 95% and 80.9% | viability, T/C (compound 1 µM): 92% and 98.5% | viability, T/C (compound 3.16 µM): 33.3% and 66.9% | viability, T/C (compound 10 µM): 0.2% and 1.39% | IC50 (curve of compound): 2240 nM and 4260 nM

CC(Nc1ccc2c(c1)OCCn1cc(N3C(=O)OCC3C(F)F)nc1-2)C(N)=O (stereo not given) + CN1CCN(c2cc(C(=O)Nc3cc4cc(-c5cnn(C)c5)ccc4cn3)ccn2)CC1
IC50 [1]: > 10000 nM | IC50 [2]: 8870 nM | IC50 [3]: < 31.6 nM | IC50 [4]: < 31.6 nM | IC50 [5]: < 31.6 nM | IC50 [6]: < 31.6 nM | viability, T/C [7]: 85.2% | viability, T/C [8]: 89.8% | viability, T/C [9]: 69.3% | viability, T/C [10]: 89.3% | viability, T/C [11]: 68.6% | viability, T/C [12]: 62.5% | viability, T/C [13]: 92.4% | viability, T/C [14]: 81.8% | viability, T/C [15]: 87.2% | viability, T/C [16]: 68.9% | viability, T/C [17]: 84.2% | viability, T/C [18]: 46.2% | viability, T/C [19]: 19.4% | viability, T/C [20]: 22.5% | viability, T/C [21]: 21.1% | viability, T/C [22]: 18.9% | viability, T/C [23]: 22.9% | viability, T/C [24]: 11.4% | viability, T/C [25]: 0.15% | viability, T/C [26]: 0.14% | viability, T/C [27]: 0.75% | viability, T/C [28]: 0.56% | viability, T/C [29]: 0.08% | viability, T/C [30]: 0.1% | viability, T/C [31]: 0.84% | viability, T/C [32]: 0.13% | viability, T/C [33]: 0.14% | viability, T/C [34]: 0.52% | viability, T/C [35]: 0.43% | viability, T/C [36]: 0.48% | viability, T/C [37]: 0.1% | viability, T/C [38]: 0.12% | viability, T/C [39]: 0.71% | viability, T/C [40]: 1.07% | viability, T/C [41]: 0.4% | viability, T/C [42]: 0.19%

C=CC(=O)Nc1cc(Nc2nccc(-c3cn(C)c4ccccc34)n2)c(OC)cc1N(C)CCN(C)C
viability, T/C (compound 0.000949 µM): 101% and 85.7% | viability, T/C (compound 0.003 µM): 87.9% and 87.5% | viability, T/C (compound 0.00949 µM): 91.7% and 74.8% | viability, T/C (compound 0.03 µM): 94.4% and 105% | viability, T/C (compound 0.0949 µM): 96.5% and 100% | viability, T/C (compound 0.3 µM): 98.5% and 90.8% | IC50 (curve of compound): > 300 nM
